Data: patent publication US20030215462A1, “Use of UGT inhibitors to increase bioavailability” (priority 2001, published 2003)
Values joined by “and” are separate entries in the source; they are usually repeats but may differ in a detail not shown here. Equal entries are not always repeated. Where two headings read alike, the source gives them in different places.

Legend:
Format in all cases: biochemical
[1] = target: T1, UGT enzymes of human liver microsomes (Homo sapiens, UniProt P16662); test: Inhibition of zidovudine glucuronidation in human liver microsomes; conditions: liver lot 062101
T1 construct: residual metabolism (percentage of control), zidovudine glucuronidation; other: liver lot 062101; residual metabolism (percentage of control), zidovudine glucuronidation; residual metabolism (percentage of control)
T1 sequence (P16662 1-529): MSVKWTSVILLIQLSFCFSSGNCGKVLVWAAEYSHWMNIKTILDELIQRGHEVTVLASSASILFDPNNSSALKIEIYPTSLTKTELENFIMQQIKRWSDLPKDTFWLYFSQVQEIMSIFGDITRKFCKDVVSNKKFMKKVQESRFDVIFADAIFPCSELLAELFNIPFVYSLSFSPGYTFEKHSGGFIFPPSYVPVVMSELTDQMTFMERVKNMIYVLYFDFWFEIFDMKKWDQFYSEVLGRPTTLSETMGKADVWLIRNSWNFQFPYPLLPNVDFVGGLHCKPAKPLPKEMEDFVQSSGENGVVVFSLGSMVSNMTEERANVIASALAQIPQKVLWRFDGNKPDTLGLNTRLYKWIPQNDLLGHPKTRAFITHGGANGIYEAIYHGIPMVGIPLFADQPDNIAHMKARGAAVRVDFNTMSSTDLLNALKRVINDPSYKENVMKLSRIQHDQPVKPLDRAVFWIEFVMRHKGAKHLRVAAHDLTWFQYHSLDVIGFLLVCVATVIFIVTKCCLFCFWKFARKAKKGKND
Method: Compounds were eluted using a binary solvent gradient system where solvent A was dilute phosphoric acid (pH 3) and solvent B was acetonitrile.
Standardized incubations utilized 500 μM zidovudine substrate, 1 mg/ml microsomal protein, 5 mM UDPGA and a 30 min incubation time. […] Int.

[2] = test system: UGT enzymes of human liver microsomes; test: Inhibition of raloxifene glucuronidation (G1, G2) in human liver microsomes
Source text: Compounds were eluted using a binary solvent gradient system. […] Solvent B was methanol. […] Detection was at 280 nm.

[3] = test system: T2, UGT enzymes of human liver microsomes; test: Inhibition of 7-HFC glucuronidation in human liver microsomes; conditions: for % of control metabolism (SD, n = 3), 7-HFC glucuronidation: 7-HFC 50 μM, human liver microsomes 100 μg/ml, 15 min
T2 construct: percentage of control metabolism, 7-HFC glucuronidation; percentage of control metabolism, 7-HFC glucuronidation

[4] = test system: T3, UGT enzymes of human liver microsomes; test: Inhibition of 2ME2 glucuronidation (MG1, MG2) in human liver microsomes; conditions: liver 062101, 2ME2 50 μM
T3 construct: other: liver 062101
Source text: (§1) Compounds were eluted using a binary solvent gradient system where solvent A was dilute phosphoric acid (pH 3) and solvent B was 80:20 acetonitrile-methanol. […] Detection was at 280 nm.

[5] = test system: UGT enzymes of pooled human jejunum microsomes; test: Inhibition of 2ME2 glucuronidation (MG1) in pooled human jejunum microsomes; conditions: jejunum HJ61, 2ME2 50 μM
Source text: as §1

[6] = G1, inhibitor 100 μM, raloxifene 50 μM, human liver microsomes 250 μg/ml, 15 min
[7] = G1, inhibitor 500 μM, raloxifene 50 μM, human liver microsomes 250 μg/ml, 15 min
[8] = G2, inhibitor 100 μM, raloxifene 50 μM, human liver microsomes 250 μg/ml, 15 min
[9] = G2, inhibitor 500 μM, raloxifene 50 μM, human liver microsomes 250 μg/ml, 15 min

Structure (SMILES) | residual metabolism (percentage of control), zidovudine glucuronidation ([1]; inhibitor 500 μM) | % of control metabolism (SD, n = 3), 7-HFC glucuronidation ([3]; inhibitor 500 μM) | residual metabolism (percentage of control), zidovudine glucuronidation ([1]; inhibitor 200 μM) | residual metabolism (percentage of control), zidovudine glucuronidation ([1]; inhibitor 1000 μM) | % of control metabolism (SD, n = 3), raloxifene glucuronide G1 [2, 6] | % of control metabolism (SD, n = 3), raloxifene glucuronide G1 [2, 7] | % of control metabolism (SD, n = 3), raloxifene glucuronide G2 [2, 8] | % of control metabolism (SD, n = 3), raloxifene glucuronide G2 [2, 9] | percentage of control metabolism, 7-HFC glucuronidation ([3]; inhibitor 100 μM) | % of control metabolism (SD, n = 3), 7-HFC glucuronidation ([3]; inhibitor 100 μM) | percentage of control metabolism, 7-HFC glucuronidation ([3]; inhibitor 200 μM) | % of control metabolism (SD, n = 3), 7-HFC glucuronidation ([3]; inhibitor 200 μM) | percentage of control metabolism, 7-HFC glucuronidation ([3]; inhibitor 500 μM) | other results
COc1cc(CNC(=O)CCCCCCC(C)C)ccc1O [Dihydrocapsaicin] | 50 (1) % | 42 (2) % |  | 42 (2) % | 49 (1) % | 18 (1) % | 68 (2) % | 26 (1) % | 60 (3) % | 60 (3) % | 52 (2) % | 52 (2) % | 42 (2) % | 
CCCCCCCCC(=O)NCc1ccc(O)c(OC)c1 [N-Vanillylnonanamide] | 67 (1) % | 48 (1) % |  | 40 (1) % | 48 (1) % | 14 (1) % | 62 (1) % | 17 (2) % | 69 (1) % | 69 (1) % | 63 (2) % | 63 (2) % | 48 (1) % | 
Cc1cc(=O)oc2cc(O)ccc12 [4-Methylumbelliferone, reference compound] | 81 (2) % | 45 (1), % and 47 (2) % |  |  |  |  |  |  | 78 (1) % | 78 (1) % | 64 (1) % | 64 (1) % | 45 (1) % and 47 (2) % | % of control metabolism, raloxifene G1 [2]: 35 (3), 39 (2) % and 37 (1), 40 (1) % and 51 (1), 53 (2) % and 69 (4), 71 (8) %; % of control metabolism, raloxifene G2 [2]: 35 (3), 39 (2) % and 37 (1), 40 (1) % and 51 (1), 53 (2) % and 69 (4), 71 (8) %
COc1cc(CNC(=O)CCCC/C=C/C(C)C)ccc1O [Capsaicin] | 57 (4) % | 39 (0) % |  | 34 (1) % | 55 (4) % | 26 (1) % | 69 (4) % | 33 (3) % | 53 (1) % and 57 (0) % | 53 (1), % and 57 (0) % | 42 (1) % and 44 (1) % | 42 (1), % and 44 (1) % | 39 (0) % | percentage of control metabolism, 7-HFC glucuronidation ([3]; inhibitor 50 μM): 69 (1) %; % of control metabolism (SD, n = 3), 7-HFC glucuronidation ([3]; inhibitor 50 μM): 69 (1) %
Cc1ccc(C(C)C)cc1O [Carvacrol] | 50 (3) % and 45 (0) % | 31 (1) % | 75 (3) % | 20 (1) % |  |  |  |  | 79 (1) % | 79 (1) % | 63 (0) % | 63 (0) % | 31 (1) % | residual metabolism (percentage of control), zidovudine glucuronidation ([1]; inhibitor 100 μM): 94 (1) %; % of control metabolism (SD, n = 3), raloxifene glucuronide G1 [2]: 37 (1) % and 64 (1) %; % of control metabolism (SD, n = 3), raloxifene glucuronide G2 [2]: 33 (0) % and 60 (1) %

Continued, in another order:

residual metabolism (percentage of control), zidovudine glucuronidation ([1]; inhibitor 500 μM) | % of control metabolism (SD, n = 3), 7-HFC glucuronidation ([3]; inhibitor 500 μM) | residual metabolism (percentage of control), zidovudine glucuronidation ([1]; inhibitor 200 μM) | Structure (SMILES) | residual metabolism (percentage of control), zidovudine glucuronidation ([1]; inhibitor 1000 μM) | % of control metabolism (SD, n = 3), raloxifene glucuronide G1 [2, 6] | % of control metabolism (SD, n = 3), raloxifene glucuronide G1 [2, 7] | % of control metabolism (SD, n = 3), raloxifene glucuronide G2 [2, 8] | % of control metabolism (SD, n = 3), raloxifene glucuronide G2 [2, 9] | percentage of control metabolism, 7-HFC glucuronidation ([3]; inhibitor 100 μM) | % of control metabolism (SD, n = 3), 7-HFC glucuronidation ([3]; inhibitor 100 μM) | percentage of control metabolism, 7-HFC glucuronidation ([3]; inhibitor 200 μM) | % of control metabolism (SD, n = 3), 7-HFC glucuronidation ([3]; inhibitor 200 μM) | percentage of control metabolism, 7-HFC glucuronidation ([3]; inhibitor 500 μM) | other results
68 (5) % | 33 (1) % |  | CCCCC/C=C\C/C=C\CCCCCCCC(=O)O [Linoleic acid] |  | 101 (8) % | 29 (0) % | 100 (4) % |  | 86 (3) % | 86 (3) % | 77 (4) % | 77 (4) % | 33 (1) % | 
28 (3) % and 25 (0) % | 75 (0) % | 62 (3) % | CC(C)=CCC/C(C)=C/CO [Geraniol] | 9 (1) % |  |  |  |  |  |  |  |  |  | residual metabolism (percentage of control), zidovudine glucuronidation ([1]; inhibitor 100 μM): 77 (5) %
29 (1) % and 24 (2) % | 80 (2) % | 24 (0) % | C[C@]12CC[C@@H]3c4ccc(O)cc4CC[C@H]3[C@@H]1CC[C@@H]2O [E2, 17-β-estradiol, reference compound] |  |  | 39 (1) % |  | 56 (2) % |  |  |  |  |  | residual metabolism (percentage of control), zidovudine glucuronidation ([1]; inhibitor 50 μM): 50 (1) %; residual metabolism (percentage of control), zidovudine glucuronidation ([1]; inhibitor 100 μM): 28 (1) %
76 (2) % | 25 (1) % |  | CC1=C(/C=C/C(C)=C/C=C/C(C)=C/CO)C(C)(C)CCC1 [Retinol] |  |  |  |  |  | 59 (1) % | 59 (1) % | 39 (1) % | 39 (1) % | 25 (1) % | 
95 (5) % | 42 (0), % and 42 (0) % |  | COc1cc(CO)ccc1O [Vanillyl alcohol] |  |  |  |  |  |  | 79 (1) % |  | 67 (3) % |  | 
48 (7) % and 34 (4) % | 63 (1) % | 64 (3) % | O=C1C[C@@H](c2ccc(O)cc2)Oc2cc(O)cc(O)c21 [Naringenin] | 15 (3) % | 34 (2) % |  | 40 (2) % |  |  |  |  |  |  | residual metabolism (% of control), 2ME2 MG1 ([4]; inhibitor 25 μM): 76 (1) %; residual metabolism (% of control), 2ME2 MG2 ([4]; inhibitor 25 μM): 53 (4) %; residual metabolism (% of control), 2ME2 MG1 ([4]; inhibitor 50 μM): 47 (3) %; residual metabolism (% of control), 2ME2 MG2 ([4]; inhibitor 50 μM): 26 (5) %; residual metabolism (% of control), 2ME2 MG1 ([4]; inhibitor 100 μM): 21 (4) %; residual metabolism (% of control), 2ME2 MG2 ([4]; inhibitor 100 μM): 19 (0) %; residual metabolism (% of control), 2ME2 MG1 ([5]; inhibitor 50 μM): 78 (2) %; residual metabolism (% of control), 2ME2 MG1 ([5]; inhibitor 100 μM): 79 (5) %; % of control metabolism (SD, n = 3), raloxifene glucuronide G1 ([2]; G1, inhibitor 50 μM, raloxifene 50 μM, human liver microsomes 250 μg/ml, 15 min): 54 (4) %; % of control metabolism (SD, n = 3), raloxifene glucuronide G2 ([2]; G2, inhibitor 50 μM, raloxifene 50 μM, human liver microsomes 250 μg/ml, 15 min): 71 (9) %
